# Measured values as given in patent US20100028293A1, “Agents for control of codling moth in fruit orchards” (Efal Chemical Industries Ltd., priority 2004, published 2010).
# Columns and labels:
# codling moth adults = experiment: Cage bioassay, paired traps with synthetic compounds versus water/ethanol control trap; assay type: in vivo, Cydia pomonella; conditions: for attractiveness to the adult insects (insects caught in trap): individual compounds at the concentrations detected in the leaf extracts, paired with control trap of water and ethanol, 60 adults, overnight, decreasing order: methyl salicylate and theaspirane mixture, linalool, benzyl alcohol
# Procedure: (i) Insects—Eggs of the CM Cydia pomonella L. were hatched at room temperature in a petri dish. The larvae were fed an artificial diet (Manduca Premix-Heliothis Premix, Stonefly Inc., Brvan, Tex.), kept at 25±0.5° C., 60±1% relative humidity and a photoperiod of 16:8 h (L:D) until the fifth instar larvae, which were transferred to corrugated paper strips (2 cm^2). Upon emergence, adult insects of mixed sex and age (within 2 days) were used for the cage bioassays.
# (v) Cage bioassays—Trapping tests were conducted in screen cages (96×68×45 cm) in the laboratory at room temperature (23° C.±3° C.) based on the method of Zhu et al. (2003). Sixty codling moth adults of mixed sex and ages (2 days after pupal emergence) were released into a cage containing the traps with different treatments. […] A Whatman paper wick (10 cm long) was used as a dispenser. To examine the effects of adding recombinant BGL1 to the leaf extract, four traps were constructed and put into the same cage. The first trap contained 10 ml of leaf extract with the addition of recombinant BGL1. The second trap contained the same amount of leaf extract with the addition of glucoimidazole. The third trap contained only leaf extract and the fourth trap contained water. The insects caught in the traps, or around the trap, were counted 12 h after their release. The insects around the trap were defined as follows: the space of the screen cage was divided equally into four parts. Each trap was put in the center of each part. The number of the insects present in each specific space, not including the ones inside the trap, was obtained in the experiments. To test the attractiveness of the synthetic compounds, traps were made with the individual chemicals that were first dissolved in ethanol at the concentrations determined by the SPME-GC-MS analyses in leaf extracts treated with BGL1. The final concentration of ethanol was 0.01%. Each trap was kept in the cage with only a control water trap including 0.01% ethanol. The experiments were conducted overnight (from 9 pm to 9 am) to cover their active time before the twilight in the early morning. […] This experiment was replicated 3 times. The traps were randomly arranged in the replications to avoid possible position effect of the traps. The studies on sex ratios of trapped insects were skipped because of complicated involvement of insect pheromones.
# [1] = system: endogenous β-glucosidase in apple leaf extracts; experiment: Quantitative β-glucosidase activity assay with pNPG as substrate; assay type: biochemical, Malus domestica; conditions: 2 μM glucoimidazole added to leaf homogenate
# Procedure: (ii) Apple leaf extract treatments—Apple (cv. Anna) spurs with both leaves and fruit were excised from a commercial orchard in the suburb of Rehovot, Israel, in June 2004. The leaves were excised from the spurs, rinsed with double distilled water (DDW) and then dried with filter paper. Dried leaves were homogenized in liquid nitrogen. Three times the weight of ice-cold extraction buffer containing 10 mM EDTA and 4 mM DTT in 50 mM citrate buffer, pH 4.3, was added to the leaf homogenate (4-5 g per treatment). The mixture was then rotated for 1 h at 4° C. and centrifuged at 16,000 g for 5 min. The supernatant (10 ml per treatment) was collected. In one treatment, 1 unit of recombinant A. niger BGL1 produced in P. pastoris (Dan et al., 2000) was added and the solution was kept at 37° C. for 4 h. In another treatment, 2 μM glucoimidazole (a β-glucosidase inhibitor) was added to the leaf homogenate immediately after the addition of the extraction buffer in order to block any endogenous β-glucosidase activity. Quantitative β-glucosidase activity was assayed using p-nitrophenyl-β-D-glucopyranoside (pNPG) as the substrate according to Shoseyov et al (1990).
smiles,measurement,setting,value
"CCCCCCCCO [1-octanol, reference compound]",effect on the behavior of codling moth adults,codling moth adults; 1-octanol alone or added to other compounds,does not have a significant effect
same,insects caught in trap,codling moth adults; trap with 70 ng m^−1 1-octanol,did not catch any insects
OCc1ccccc1 [benzyl alcohol],attractiveness to the adult insects (insects caught in trap),codling moth adults,more attractive than water
CC(C)=CCC/C(C)=C/CO [geraniol],repellent effect on codling moth adults,codling moth adults; 39.4 ng ml^−1,exhibited a repellent effect
OC[C@@H]1[C@@H](O)[C@H](O)[C@@H](O)c2nccn21 [glucoimidazole],β-glucosidase activity in the leaf extract after treatment,[1],undetectable levels
C=CC(C)(O)CCC=C(C)C (stereo not shown) [linalool],attractiveness to the adult insects (insects caught in trap),codling moth adults,more attractive than water
COC(=O)c1ccccc1O [methyl salicylate],attractiveness to the adult insects (insects caught in trap),codling moth adults,more attractive than water
